Experimental data taken from patent publication US11780832B2, “Lactivicin compounds, their preparation and use as antibacterial agents” (priority 2021, dated 2023).
Read-outs that look alike come from different tables or passages of the source.

Assays:
Type in all cases: cell-based
[1] = tested on: Enterobacter cloacae species complex Elevated AmpC; test: MIC against Elevated AmpC producing strains, compound alone
Protocol: (§1) Gram-negative and Gram-positive bacterial strains used during the in vitro minimum inhibitory concentration (MIC) determination were obtained either from the American Type Culture Collection (ATCC) or from clinical specimens. All strains were characterized genotypically and the respective antibiotic resistance markers for each strain were identified.
(§2) Isolates were sub-cultured onto appropriate media and stocked in skim milk at −80° C. Following two subcultures from frozen stock, in vitro antimicrobial susceptibility testing was performed using the Clinical and Laboratory Standards Institute (CLSI) broth microdilution method. Briefly, fresh cultures were suspended in culture media to give a final stock inoculum size of 5×10^7 colony forming units per milliliter of broth (CFU/mL). Test compounds were prepared at a stock solution concentration equal to 128 μg/mL, then diluted to give a final an initial working concentration of 32 μg/mL. 100 μL of the stock solutions were added to the first wells in a 96-well plate and were then diluted using a 2-fold dilution method to give a range of 32-0.025 μg/mL. 100 μL of the bacterial suspensions were then added to the 96-well plates to give a final working inoculum size of 5×10^5 CFU/mL. The final compound concentration range was 16-0.0125 μg/mL. […] MICs for comparator agents were determined using custom-designed, in-house prepared 96-well broth microdilution panels.

[2] = tested on: Citrobacter freundii species complex Elevated AmpC; test: as above; conditions: row r16
Protocol: as §1, §2

[3] = tested on: Escherichia coli Elevated AmpC; test: as above
Protocol: as §1, §2

[4] = tested on: Enterobacter cloacae species complex Elevated AmpC; test: Synergistic activity: MIC in the presence of Avibactam
Protocol: as §2
The same method used to test the activity of the claimed compounds was used to determine their synergistic activity when combined with a β-lactamase inhibitor except that either a fixed concentration or fixed ratio of a β-lactamase inhibitor was added to the 96-well plates prior to adding the bacteria cultures. Synergistic activity was defined as the reduction of MIC of a given compound when tested using the β-lactamase inhibitor versus testing the compound in the absence of a β-lactamase inhibitor.

[5] = tested on: Klebsiella pneumoniae CMY-DHA; test: MIC against CMY-DHA producing strains, compound alone; conditions: row r32
Protocol: as §1, §2

[6] = tested on: Proteus mirabilis CMY-DHA; test: as above; conditions: row r36
Protocol: as §1, §2

[7] = tested on: Escherichia coli CMY-DHA; test: as above
Protocol: as §1, §2

[8] = tested on: Pseudomonas aeruginosa AmpC overexpressed; test: MIC, CLSI broth microdilution
Method in brief: (§3)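 Working inoculum of 5×10^5 CFU/mL, prepared from freshly subcultured genotyped strains, was dispensed onto two-fold compound dilutions giving final concentrations of 16-0.0125 μg/mL. Testing adhered to CLSI broth microdilution methodology.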

[9] = tested on: Acinetobacter baumannii ATCC 19606; test: MIC, CLSI broth microdilution; conditions: ATCC19606
Method in brief: (§4)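 The read-out is the minimum inhibitory concentration determined by CLSI broth microdilution. Final compound levels ran from 16 to 0.0125 μg/mL in two-fold steps against about 5×10^5 CFU/mL of genotypically characterized bacteria.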

[10] = tested on: Klebsiella aerogenes VIM-1, SHV-12; test: MIC, CLSI broth microdilution
Method in brief: as §4

[11] = tested on: Enterobacter cloacae species complex NDM-1; test: MIC, CLSI broth microdilution
Method in brief: as §4

[12] = tested on: Citrobacter freundii species complex OXA-181; test: MIC, CLSI broth microdilution
Method in brief: as §4

[13] = tested on: Pseudomonas aeruginosa ATCC 27853; test: MIC, CLSI broth microdilution; conditions: ATCC27853
Method in brief: as §4

[14] = tested on: Escherichia coli SHV-12; test: MIC, CLSI broth microdilution; conditions: SHV12
Method in brief: as §4

[15] = tested on: Pseudomonas aeruginosa OprD negative; test: MIC, CLSI broth microdilution
Method in brief: as §3

[16] = tested on: Klebsiella oxytoca KPC-2, TEM-1; test: MIC, CLSI broth microdilution
Method in brief: as §4

[17] = tested on: Klebsiella pneumoniae OXA-163, OXA-1_OXA-30, SHV-1, TEM-1; test: MIC, CLSI broth microdilution
Method in brief: as §3

[18] = tested on: Serratia marcescens AmpC overexpressed; test: MIC, CLSI broth microdilution
Method in brief: as §3

[19] = tested on: Klebsiella pneumoniae KPC-2; test: MIC, CLSI broth microdilution; conditions: KPC2
Method in brief: as §4

[20] = tested on: Klebsiella pneumoniae KPC-3; test: MIC, CLSI broth microdilution
Method in brief: as §4

[21] = tested on: Escherichia coli CMY-2; test: MIC, CLSI broth microdilution; conditions: CMY2
Method in brief: as §4

[22] = tested on: Escherichia coli ATCC 25922; test: MIC, CLSI broth microdilution; conditions: ATCC25922
Method in brief: as §4

[23] = tested on: Klebsiella pneumoniae OXA-48, SHV-1; test: MIC, CLSI broth microdilution
Method in brief: as §3

[24] = tested on: Klebsiella pneumoniae SHV-12; test: MIC, CLSI broth microdilution
Method in brief: as §4

[25] = tested on: Serratia marcescens SME-2; test: MIC, CLSI broth microdilution; conditions: SME2
Method in brief: as §4

[26] = tested on: Escherichia coli CTX-M-15; test: MIC, CLSI broth microdilution; conditions: CTXM15
Method in brief: as §4

[27] = in the presence of Avibactam @ 4 μg/mL
[28] = strain of row r7, in the presence of Avibactam @ 4 μg/mL
[29] = strain of row r20, in the presence of Avibactam @ 4 μg/mL
[30] = Citrobacter freundii species complex, OXA-181, read-out: MIC

Measured: MIC

Nc1nc(/C(=N/OC2(C(=O)O)CCOCC2)C(=O)N[C@H]2CON(C3(C(=O)O)C[C@H](N4C(=O)c5cc(O)c(O)cc5C4=O)C(=O)O3)C2=O)cs1 (stereo partly drawn) [Cmpd 8, 4-({(Z)-[1-(2-amino-1,3-thiazol-4-yl)-2-({(4S)-2-[(4S)-2-carboxy-4-(5,6-dihydroxy-1,3-dioxo-1,3-dihydro-2H-isoindol-2-yl)-5-oxooxolan-2-yl]-3-oxo-1,2-oxazolidin-4-yl}amino)-2-oxoethylidene]amino}oxy)oxane-4-carboxylic acid]
0.5 µg/mL: [1] | [7]; strain of row r29 | [8]
0.03 µg/mL: [3]; strain of row r13
0.0149 µg/mL: [12]; Citrobacter freundii | [16] | [20]; KPC3 | [23] | [24]; SHV12
0.06 µg/mL: [3]; strain of row r14 | [4]; [27] | [7]; strain of row r27 | [17] | [18] | [22] | [25]
1 µg/mL: [5] | [7]; strain of row r26 | [7]; strain of row r31 | [14] | [21]
0.015 µg/mL: [3]; strain of row r10
0.12 µg/mL: [1]; strain of row r20 | [3]; strain of row r11 | [3]; strain of row r15 | [4]; [28] | [7]; strain of row r34 | [9] | [13] | [15] | [19]
2 µg/mL: [1]; strain of row r7 | [10] | [26]
4 µg/mL: [6]
<=0.008 μg/mL: [4]; [29]
0.25 µg/mL: [2] | [3]; strain of row r12 | [7]; strain of row r28 | [7]; strain of row r30 | [7]; strain of row r35 | [11]

Nc1nc(/C(=N/OC2(C(=O)O)CC2)C(=O)N[C@H]2CON(C3(C(=O)O)C[C@H](N4C(=O)c5cc(O)c(O)cc5C4=O)C(=O)O3)C2=O)ns1 (stereo partly drawn) [Cmpd 18, (4S)-2-[(4S)-4-{[(2Z)-2-(5-amino-1,2,4-thiadiazol-3-yl)-2-{[(1-carboxycyclopropyl)oxy]imino}acetyl]amino}-3-oxo-1,2-oxazolidin-2-yl]-4-(5,6-dihydroxy-1,3-dioxo-1,3-dihydro-2H-isoindol-2-yl)-5-oxooxolane-2-carboxylic acid]
1 µg/mL: [1] | [2] | [5] | [6] | [7]; strain of row r29 | [8] | [14] | [26]
<=0.008 μg/mL: [4]; [29]
0.06 µg/mL: [3]; strain of row r13 | [3]; strain of row r14 | [4]; [27] | [12]; [30] | [19] | [20]; KPC3, KPC-3, read-out: MIC | [25]
0.0149 µg/mL: [16]; KPC-2, TEM-1, read-out: MIC | [23]
2 µg/mL: [7]; strain of row r31 | [21]
0.25 µg/mL: [1]; strain of row r20 | [3]; strain of row r11 | [3]; strain of row r15 | [7]; strain of row r28 | [9]
0.5 µg/mL: [3]; strain of row r12 | [7]; strain of row r26 | [7]; strain of row r30 | [7]; strain of row r34 | [7]; strain of row r35 | [10] | [11] | [18]
0.12 µg/mL: [4]; [28] | [7]; strain of row r27 | [13] | [15] | [17] | [22]
0.03 µg/mL: [3]; strain of row r10 | [24]; SHV12, SHV-12, read-out: MIC
4 µg/mL: [1]; strain of row r7

Nc1nc(/C(=N/OC2(C(=O)O)CCC(F)(F)CC2)C(=O)N[C@H]2CON(C3(C(=O)O)C[C@H](N4C(=O)c5cc(O)c(O)cc5C4=O)C(=O)O3)C2=O)cs1 (stereo partly drawn) [Cmpd 10, (4S)-2-[(4S)-4-{[(2Z)-2-(2-amino-1,3-thiazol-4-yl)-2-{[(1-carboxy-4,4-difluorocyclohexyl)oxy]imino}acetyl]amino}-3-oxo-1,2-oxazolidin-2-yl]-4-(5,6-dihydroxy-1,3-dioxo-1,3-dihydro-2H-isoindol-2-yl)-5-oxooxolane-2-carboxylic acid]
0.06 µg/mL: [4]; [27] | [7]; strain of row r34 | [17] | [20]; KPC3, KPC-3, read-out: MIC | [25]
0.5 µg/mL: [1] | [5] | [7]; strain of row r26 | [7]; strain of row r29
≤ 0.015 µg/mL: [12]; [30] | [16]; KPC-2, TEM-1, read-out: MIC | [23] | [24]; SHV12, SHV-12, read-out: MIC
<=0.008 μg/mL: [4]; [29]
0.25 µg/mL: [2] | [3]; strain of row r15 | [7]; strain of row r28 | [7]; strain of row r30 | [15]
0.015 µg/mL: [3]; strain of row r10
0.12 µg/mL: [1]; strain of row r20 | [3]; strain of row r11 | [3]; strain of row r12 | [4]; [28] | [6] | [7]; strain of row r35 | [9] | [10] | [13] | [18] | [22]
0.03 µg/mL: [3]; strain of row r13 | [3]; strain of row r14 | [7]; strain of row r27 | [19]
2 µg/mL: [8] | [11] | [14]
4 µg/mL: [1]; strain of row r7
1 µg/mL: [7]; strain of row r31 | [21] | [26]
